Measurements published in PMC6136660 (Steroids, 2018).
Read-outs that look alike come from different tables or passages of the source.

How the values were obtained:
Format in all cases: in vivo, human
osteocalcin = assay: Serum osteocalcin (bone formation biomarker), MAD; details: for Osteocalcin: MAD 20.0 mg/kg, mean±SEM
Procedure: (§1) All biomarkers were analyzed using standard immunoassays by PRA.
Pharmacological glucocorticoids cause bone side effects including osteopenia and bone fragility. Bone turnover markers bridged to later bone morbidities include osteocalcin for bone formation, and CTX1 (C-terminal telopeptide of collagen 1) for bone absorption. These biomarkers predict phenotypes of osteopenia and used in clinical trials to monitor bone side effects of treatments. […] (Supplemental Fig. 2). In the vamorolone Phase 1 trial, serum osteocalcin levels were assayed prior to dosing (Day 1 predose), 8 h after initial dose (Day 1), pre-dose on day 14 of daily dosing, 8 h after the day 14 (last) dose, and during recovery days 15 and 17.

[1] = system: blood glucose (insulin resistance biomarker); assay: Blood glucose, SAD; details: mean±SEM
Procedure: as §1
Glucocorticoids were originally named as such due to their potent and acute effects on glucose metabolism, where liver and muscle pathways for insulin signaling are rapidly and profoundly affected, creating a state of insulin resistance. […] Fasting insulin and glucose levels were assessed in all dose groups in the vamorolone Phase 1 SAD and MAD.

[2] = Phase 1 multiple ascending dose (MAD) pharmacokinetics, 14 days once daily; details: for CL/F: human, plasma, oral, read-out: CL/F, range of geometric mean values
Procedure: The MAD part of the study was initiated after a review of safety and PK data from SAD cohorts 1 to 6. In the MAD part, 4 cohorts containing 8 subjects each were randomized to receive vamorolone or placebo, in a 3:1 ratio, once daily (QD) for 14 days. The duration of dosing in the MAD part was determined based on the PK data from the SAD part. In each cohort, 3 sentinel subjects were administered vamorolone or placebo, in a 2:1 ratio.
The planned dose levels for the MAD part were 1.0 mg/kg (Cohort 1), 3.0 mg/kg (Cohort 2), 9.0 mg/kg (Cohort 3), and 20.0 mg/kg (Cohort 4) or until the maximum tolerated dose (MTD) was identified.
Daily doses of vamorolone (1.0, 3.0, 9.0 and 20.0 mg/kg/day) were given in the morning in a fasted state, daily for 14 days, and PK determined on day 1 (after single dose) and day 14 (after the 14th dose). Consistent with the SAD, mean plasma vamorolone concentrations and dose-related PK parameters increased in a dose related manner (Fig. 3). Log-log plots of the individual subject Cmax and AUC (inf) were linear. Although the slopes ranged from 0.827 to 0.898, the deviation from 1.0 may be a consequence of between-subject variability and not indicative of a less than dose-proportional increase in exposure.

C[C@@H]1C[C@H]2[C@@H]3CCC4=CC(=O)C=C[C@]4(C)C3=CC[C@]2(C)[C@@]1(O)C(=O)CO [vamorolone]
Osteocalcin (osteocalcin; Day 15 recovery): 27.8 ± 5.9 ng/mL | Osteocalcin (osteocalcin; Day 17 recovery): 34.6 ± 6.1 ng/mL | osteocalcin and CTX1 vs placebo (osteocalcin; any MAD dose group, through 20 mg/kg/day): no significant changes | Blood glucose ([1]; SAD 0.1 mg/kg, 24 Hours Post Dose): 95 ± 4 mg/dL | Blood glucose ([1]; SAD 0.1 mg/kg, 48 Hours Post Dose): 95 ± 3 mg/dL | Blood glucose ([1]; SAD 0.1 mg/kg, 72 Hours Post Dose): 94 ± 4 mg/dL | Blood glucose ([1]; SAD 0.1 mg/kg, <2 hours predose, baseline): 95 ± 3 mg/dL | Blood glucose ([1]; SAD 0.1 mg/kg, Day -1, baseline): 99 ± 3 mg/dL | Blood glucose ([1]; SAD 0.1 mg/kg, Follow-up Visit): 98 ± 4 mg/dL | Blood glucose ([1]; SAD 0.1 mg/kg, Screening, baseline): 94 ± 4 mg/dL | Blood glucose ([1]; SAD 0.3 mg/kg, 24 Hours Post Dose): 91 ± 2 mg/dL | Blood glucose ([1]; SAD 0.3 mg/kg, 48 Hours Post Dose): 90 ± 2 mg/dL | Blood glucose ([1]; SAD 0.3 mg/kg, 72 Hours Post Dose): 91 ± 1 mg/dL | Blood glucose ([1]; SAD 0.3 mg/kg, <2 hours predose, baseline): 93 ± 2 mg/dL | Blood glucose ([1]; SAD 0.3 mg/kg, Day -1, baseline): 91 ± 2 mg/dL | Blood glucose ([1]; SAD 0.3 mg/kg, Follow-up Visit): 88 ± 4 mg/dL | Blood glucose ([1]; SAD 0.3 mg/kg, Screening, baseline): 93 ± 2 mg/dL | Blood glucose ([1]; SAD 1.0 mg/kg, 24 Hours Post Dose): 86 ± 3 mg/dL | Blood glucose ([1]; SAD 1.0 mg/kg, 48 Hours Post Dose): 88 ± 3 mg/dL | Blood glucose ([1]; SAD 1.0 mg/kg, 72 Hours Post Dose): 86 ± 3 mg/dL | Blood glucose ([1]; SAD 1.0 mg/kg, <2 hours predose, baseline): 93 ± 3 mg/dL | Blood glucose ([1]; SAD 1.0 mg/kg, Day -1, baseline): 92 ± 3 mg/dL | Blood glucose ([1]; SAD 1.0 mg/kg, Follow-up Visit): 93 ± 2 mg/dL | Blood glucose ([1]; SAD 1.0 mg/kg, Screening, baseline): 92 ± 3 mg/dL | Blood glucose ([1]; SAD 3.0 mg/kg, 24 Hours Post Dose): 93 ± 3 mg/dL | Blood glucose ([1]; SAD 3.0 mg/kg, 48 Hours Post Dose): 89 ± 4 mg/dL | Blood glucose ([1]; SAD 3.0 mg/kg, 72 Hours Post Dose): 88 ± 3 mg/dL | Blood glucose ([1]; SAD 3.0 mg/kg, <2 hours predose, baseline): 92 ± 4 mg/dL | Blood glucose ([1]; SAD 3.0 mg/kg, Day -1, baseline): 89 ± 3 mg/dL | Blood glucose ([1]; SAD 3.0 mg/kg, Follow-up Visit): 91 ± 5 mg/dL | Blood glucose ([1]; SAD 3.0 mg/kg, Screening, baseline): 96 ± 5 mg/dL | Blood glucose ([1]; SAD 8.0 mg/kg, 24 Hours Post Dose): 91 ± 4 mg/dL | Blood glucose ([1]; SAD 8.0 mg/kg, 48 Hours Post Dose): 87 ± 3 mg/dL | Blood glucose ([1]; SAD 8.0 mg/kg, 72 Hours Post Dose): 89 ± 4 mg/dL | Blood glucose ([1]; SAD 8.0 mg/kg, <2 hours predose, baseline): 86 ± 3 mg/dL | Blood glucose ([1]; SAD 8.0 mg/kg, Day -1, baseline): 90 ± 5 mg/dL | Blood glucose ([1]; SAD 8.0 mg/kg, Follow-up Visit): 94 ± 4 mg/dL | Blood glucose ([1]; SAD 8.0 mg/kg, Screening, baseline): 89 ± 4 mg/dL | Blood glucose ([1]; SAD 20.0 mg/kg, 24 Hours Post Dose): 91 ± 2 mg/dL | Blood glucose ([1]; SAD 20.0 mg/kg, 48 Hours Post Dose): 86 ± 2 mg/dL | Blood glucose ([1]; SAD 20.0 mg/kg, 72 Hours Post Dose): 88 ± 2 mg/dL | Blood glucose ([1]; SAD 20.0 mg/kg, <2 hours predose, baseline): 97 ± 4 mg/dL | Blood glucose ([1]; SAD 20.0 mg/kg, Day -1, baseline): 94 ± 3 mg/dL | Blood glucose ([1]; SAD 20.0 mg/kg, Follow-up Visit): 89 ± 3 mg/dL | Blood glucose ([1]; SAD 20.0 mg/kg, Screening, baseline): 93 ± 3 mg/dL | drug accumulation between daily doses ([2]; Day 1 vs Day 14, once daily 14 days): essentially no drug accumulation between doses | CL/F ([2]; MAD Day 1, across 1-20 mg/kg/day): 23.7 to 33.7 mL/min/kg | CL/F ([2]; MAD Day 14, across 1-20 mg/kg/day): 21 to 35.8 mL/min/kg
